System: bNCSCs
Assay: in vitro differentiation assay of bNCSCs
Assay type: cell-based, mouse
Details: bNCSC cultures
Procedure: bNCSCs were isolated in a semiclonal fashion from EGFP embryos on embryonic day (E)11, as described previously (Hjerling-Leffler J, Marmigére F, Heglind M, et al. The boundary cap: a source of neural crest stem cells that generate multiple sensory neuron subtypes. Development 2005; 132:2623-32). Briefly, the DRGs along with boundary caps were mechanically separated from the isolated spinal cord and mechano-enzymatically dissociated using Collagenase/Dispase (1 mg/ml) and DNase (0.5 mg/ml) for 30 minutes at room temperature. Cells were plated at 0.5-1×10^5 cells/cm^2 in N2 medium containing B27 (Gibco, Grand Island, N.Y., www.invitrogen.com) as well as EGF and basic fibroblast growth factor (R&D Systems, Minneapolis, www.rndsystems.com; 20 ng/ml, respectively). […]
The AMS were added to the cultures and the time-window for their presence before dissolving in the culture medium was established. We also analyzed their contact with the stem cells. […] After staining 10 photographs were taken from each slide and the ratios of neurons and glial cells were calculated in all types of experiments. We also calculated the neurite length per cell as a measure of the level of neuronal differentiation (Kozlova E N. Differentiation and migration of astrocytes in the spinal cord following dorsal root injury in the adult rat. Eur J Neurosci 2003; 17:782-90).

Structure (SMILES): CC1=C(/C=C/C(C)=C/C=C/C(C)=C/C(=O)O)C(C)(C)CCC1 [RA, retinoic acid]
- differentiation of neurons based on neurite lengths, increase compared to non-treated neurospheres: up to 37%
- neuron/glia ratio, increase compared to neurospheres-alone: 3.4 times

— US10273453B2, “Method for stem cell differentiation in vivo by delivery of morphogenes with mesoporous silica and corresponding pharmaceutical active ingredients” (Nanologica AB, priority 2010, dated 2019)
